Values after ≈ are worked out from the molar mass of the structure shown. Positions of bridges follow the written chain, without caps; N, C: chain ends. Non-standard residues stand in square brackets, D forms with d. Residues, ends and D or L forms follow the SMILES beside them. *: point of attachment. CH2CH2OBz(4-tBu) = CC(C)(C)c1ccc(C(=O)OCC*)cc1; Ethyl(2-decanoyloxy) = CCCCCCCCCC(=O)OCC*; Ethyl(2-butanoyloxy) = CCCC(=O)OCC*; Ethyl(2-OPiv) = CC(C)(C)C(=O)OCC*; Dab = NCC[C@H](N)C(=O)O
Key:
A. baumannii ATCC 19606 = type: cell-based, Acinetobacter baumannii; conditions: ATCC 19606
Description: (§1) All 81 compounds prepared in Examples 2 and 3 underwent screening against a panel of Gram-negative bacterium to assess their ability to inhibit bacterial growth. […] The median value is presented.

P. aeruginosa ATCC 27853 = type: cell-based, Pseudomonas aeruginosa; conditions: ATCC 27853
Description: as §1

E. coli ATCC MS8345 = type: cell-based, Escherichia coli; conditions: ATCC MS8345
Description: as §1
Expansion of the polymyxin macrocycle by substituting […]) offered little advantage in antimicrobial activity but was generally well tolerated although for A. baumanni and P. aeruginosa this was detrimental.

[1] = test system: K. pneumoniae ATCC 700603; type: cell-based, Klebsiella pneumoniae; conditions: ATCC 700603
Description: as §1

K. pneumoniae ATCC 33495 = type: cell-based, Klebsiella pneumoniae; conditions: ATCC 33495
Description: as §1

[2] = test system: K. pneumoniae ATCC MS6671; type: cell-based, Klebsiella pneumoniae; conditions: ATCC MS6671
Description: as §1

E. coli ATCC 25922 = type: cell-based, Escherichia coli; conditions: ATCC 25922
Description: as §1

Row | SMILES | MIC A. baumannii ATCC 19606 (A. baumannii ATCC 19606) | MIC P. aeruginosa ATCC 27853 (P. aeruginosa ATCC 27853) | MIC E. coli ATCC MS8345 (E. coli ATCC MS8345) | MIC K. pneumoniae ATCC 700603 [1] | MIC K. pneumoniae ATCC 33495 (K. pneumoniae ATCC 33495) | MIC K. pneumoniae ATCC MS6671 [2] | MIC E. coli ATCC 25922 (E. coli ATCC 25922)
1 | CC(C)C[C@@H]1NC(=O)[C@@H](Cc2ccccc2)NC(=O)[C@H](CCN)NC(=O)[C@@H](NC(=O)[C@H](CCN)NC(=O)[C@@H](NC(=O)[C@H](CCN)NC(=O)[C@@H](N)CSCCOC(=O)c2ccc(C(C)(C)C)cc2)[C@@H](C)O)CCCCNC(=O)[C@H]([C@@H](C)O)NC(=O)[C@H](CCN)NC(=O)[C@H](CCN)NC1=O [Compound 28] (H-C(CH2CH2OBz(4-tBu))[Dab]T[Dab]K[Dab][dF]L[Dab][Dab]T; lactam 5-C) | 4 µg/mL (≈ 2.86 µM) | 1 µg/mL (≈ 0.715 µM) | 32 µg/mL (≈ 22.9 µM) | 4 µg/mL (≈ 2.86 µM) | 0.5 µg/mL (≈ 0.357 µM) | >32 µg/mL | 2 µg/mL (≈ 1.43 µM)
2 | CCCC(=O)OCCSC[C@H](N)C(=O)N[C@@H](CCN)C(=O)N[C@H](C(=O)N[C@@H](CCN)C(=O)N[C@H]1CCNC(=O)[C@H]([C@@H](C)O)NC(=O)[C@H](CCN)NC(=O)[C@H](CCN)NC(=O)[C@H](CC(C)C)NC(=O)[C@@H](Cc2ccccc2)NC(=O)[C@H](CCN)NC1=O)[C@@H](C)O [Compound 30] (H-C(Ethyl(2-butanoyloxy))[Dab]T[Dab][Dab][Dab][dF]L[Dab][Dab]T; lactam 5-C) | 2 µg/mL (≈ 1.56 µM) | 2 µg/mL (≈ 1.56 µM) | 32 µg/mL (≈ 25 µM) | 0.5 µg/mL (≈ 0.39 µM) | 0.125 µg/mL (≈ 0.0976 µM) | >32 µg/mL | 0.5 µg/mL (≈ 0.39 µM)
3 | CCCCCCCCCC(=O)OCCSC[C@H](N)C(=O)N[C@@H](CCN)C(=O)N[C@H](C(=O)N[C@@H](CCN)C(=O)N[C@H]1CCNC(=O)[C@H]([C@@H](C)O)NC(=O)[C@H](CCN)NC(=O)[C@H](CCN)NC(=O)[C@H](CC(C)C)NC(=O)[C@@H](Cc2ccccc2)NC(=O)[C@H](CCN)NC1=O)[C@@H](C)O [Compound 31] (H-C(Ethyl(2-decanoyloxy))[Dab]T[Dab][Dab][Dab][dF]L[Dab][Dab]T; lactam 5-C) | 1 µg/mL (≈ 0.733 µM) | 1 µg/mL (≈ 0.733 µM) | 2 to 4 µg/mL | 4 µg/mL (≈ 2.93 µM) | 0.5 µg/mL (≈ 0.366 µM) | >32 µg/mL | 2 µg/mL (≈ 1.47 µM)
4 | CC(C)C[C@@H]1NC(=O)[C@@H](Cc2ccccc2)NC(=O)[C@H](CCN)NC(=O)[C@@H](NC(=O)[C@H](CCN)NC(=O)[C@@H](NC(=O)[C@H](CCN)NC(=O)[C@@H](N)CSCCOC(=O)C(C)(C)C)[C@@H](C)O)CCNC(=O)[C@H]([C@@H](C)O)NC(=O)[C@H](CCN)NC(=O)[C@H](CCN)NC1=O [Compound 32] (H-C(Ethyl(2-OPiv))[Dab]T[Dab][Dab][Dab][dF]L[Dab][Dab]T; lactam 5-C) | 1 µg/mL (≈ 0.772 µM) | 1 µg/mL (≈ 0.772 µM) | 16 µg/mL (≈ 12.4 µM) | 0.5 µg/mL (≈ 0.386 µM) | 0.125 µg/mL (≈ 0.0966 µM) | >32 µg/mL | 0.25 µg/mL (≈ 0.193 µM)

Source: patent US20250282827A1, “LIPIDATED POLYMYXIN ANALOGUES” (priority 2021, published 2025)
